This is an account of results in article PMC3776224, “Investigation of acyclic uridine amide and 5′-amido nucleoside analogues as potential inhibitors of the Plasmodium falciparum dUTPase^” (Bioorganic & Medicinal Chemistry, 2013).

Each structure is given as a SMILES string. Where two headings read alike, the source gives them in different places.

The term Ki denotes a dissociation constant, usually derived from enzyme kinetics or from competition with a known ligand. As a reminder, the EC50 is the concentration at which the effect is half-maximal. By melting point is commonly meant the temperature of the solid-liquid transition.

Series [1] addresses T1, recombinant PfdUTPase (Plasmodium falciparum, UniProt Q8II92).
T1 construct: made in house; host or cells: E. coli BL21 (DE3)
T1 sequence (Q8II92 1-173): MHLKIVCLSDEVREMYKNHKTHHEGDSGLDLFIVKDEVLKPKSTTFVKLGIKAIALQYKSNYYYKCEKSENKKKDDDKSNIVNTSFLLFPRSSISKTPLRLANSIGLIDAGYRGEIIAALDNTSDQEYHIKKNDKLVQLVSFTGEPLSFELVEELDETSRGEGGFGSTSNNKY
To be noted: previously reported; cited from earlier work.

Series [2] has as its target T2, human dUTPase (HsdUTPase) (Homo sapiens, UniProt P33316).
T2 construct: made in house; host or cells: E. coli BL21 (DE3)
T2 sequence (P33316 112-252 limits assumed): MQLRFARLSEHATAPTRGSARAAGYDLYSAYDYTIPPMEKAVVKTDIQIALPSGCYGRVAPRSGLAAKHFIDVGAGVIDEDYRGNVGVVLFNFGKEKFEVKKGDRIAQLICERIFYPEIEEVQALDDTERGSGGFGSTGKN
To be noted: previously reported; read-out: Enzyme assay Ki HsdUTPase; cited from earlier work.

Series [3] has as its system P. falciparum K1, a chloroquine and pyrimethamine resistant strain. The following applies: mean of two independent assays, previously reported, read-out: In vitro assays EC50 P.f.; cited from earlier work.
Series [4] relates to L6 cells (rat skeletal myoblast cells). The following applies: previously reported, cited from earlier work; for EC50: cytotoxicity on rat L6 myoblasts, mean of two independent assays, read-out: In vitro assays EC50 L6 cells.
In series [5] the target is T1, recombinant PfdUTPase. Briefly: PfdUTPase enzyme inhibition assay (dUTP hydrolysis, Ki). The series is classed as biochemical. The following applies: for Ki: read-out: Enzyme assay, Ki P.fal. How it is done: (§1) Biological activity was evaluated by testing all compounds against the recombinant PfdUTPase and human dUTPase (HsdUTPase) in order to determine inhibition constants and selectivity.
Both recombinant P. falciparum and human dUTPases were expressed in E. coli BL21 (DE3) cells which had been transformed with the pET11Pfdut and pET3Hudut (kindly provided by P.O. Nyman, Lund University, Sweden) expression vectors, respectively. For dUTPase purification, the same procedure was used for both the human and the Plasmodium enzymes. Cell pellets from a 2.8 L IPTG-induced culture were resuspended in 70 mL of buffer A (20 mM MES, 50 mM NaCl, 1 mM DTT, pH 5.5) containing a protease inhibitor cocktail. The cells were lysed by sonication, and the cell extract was cleared by centrifugation at 14,000 rpm for 30 min. The supernatant was loaded onto a 40 mL phosphocellulose (Whatman P-11) column at 4 °C and eluted with a 50 mM to 1 M NaCl gradient in buffer A. Protein was further purified by gel filtration chromatography on a Superdex 200 HA 10/30 column at 4 °C. Pooled fractions were concentrated by centrifugation at 4 °C and desalted using a PD-10 column. The enzyme was stored in 10 mM bicine and 5 mM MgCl2, pH 8 at −80 °C.
(§2) Nucleotide hydrolysis was monitored by mixing enzyme and substrate with a rapid kinetic accessory (Hi-Tech Scientific) attached to a spectrophotometer (Cary 50) and connected to a computer for data acquisition and storage as described previously.[17] Protons, released through the hydrolysis of nucleotides, were neutralized by a pH indicator in weak buffered medium with similar pKa and monitored spectrophotometrically at the absorbance peak of the basic form of the indicator. The ratio between the indicator and the buffer concentration was 50:[…], and the absorbance changes were kept within 0.1 units. The indicator/buffer pair used was red cresol/bicine (pH 8, 573 nm). Assay mixes contained 30 nM PfdUTPase, 50 μM dUTP, 5 mM MgCl2, 1 mg/mL BSA, and 100 mM KCl. Vmax and KMapp were calculated by fitting the resulting data to the integrated Michaelis–Menten equation.

In series [6] the test system is P. falciparum K1, a chloroquine and pyrimethamine resistant strain. Briefly: In vitro antiplasmodial activity, parasites cultured in erythrocytes. The series is classed as cell-based. To be noted: Plasmodium falciparum, Erythrocyte, mean of two independent assays, read-out: In vitro assays, EC50 P.fal. How it is done: as §1
(§3) Activity against P. falciparum K1 strain and cytotoxicity assessment against L6 cells (rat skeletal myoblast cells) was determined as previously reported.[9]

The subject of series [7] is L6 cells (rat skeletal myoblast cells). Briefly: Cytotoxicity on rat L6 myoblasts. The series is classed as cell-based. As to the method:
as §3

Series [8] deals with T2, human dUTPase (HsdUTPase). Briefly: Human dUTPase enzyme inhibition assay (dUTP hydrolysis, Ki). The series is classed as biochemical. The following applies: recombinant human dUTPase; read-out: Enzyme assay, Ki H. sap. As to the method:
as §1
Both recombinant P. falciparum and human dUTPases were expressed in E. coli BL21 (DE3) cells which had been transformed with the pET11Pfdut and pET3Hudut (kindly provided by P.O. Nyman, Lund University, Sweden) expression vectors, respectively. For dUTPase purification, the same procedure was used for both the human and the Plasmodium enzymes. Cell pellets from a 2.8 L IPTG-induced culture were resuspended in 70 mL of buffer A (20 mM MES, 50 mM NaCl, 1 mM DTT, pH 5.5) containing a protease inhibitor cocktail. […]
as §2, with “The indicator/buffer pair used was red cresol/bicine (pH 8, 573 nm). Assay mixes contained 30 nM PfdUTPase, 50 μM dUTP, 5 mM MgCl2, 1 mg/mL BSA, and 100 mM KCl. Vmax and KMapp were calculated by fitting the resulting data to the integrated Michaelis–Menten equation.” left out

The mark [9] stands for this setting: recombinant PfdUTPase, 50 μM dUTP, pH 8.
The mark [10] stands for this setting: cytotoxicity on rat L6 myoblasts, mean of two independent assays, read-out: In vitro assays, EC50 L6 cells (Tox).

Turning to `O=c1ccn(CCCCNC(c2ccccc2)(c2ccccc2)c2ccccc2)c(=O)[nH]1` [Compound 1f], the “Selectivity index (SI) for enzyme [KiHsdUTPase/KiPfdUTPase]” value on recombinant PfdUTPase [1] is reported as above 1111. Moreover, the Ki in [2] was above 1000 µM. Further, the half-maximal effective concentration (EC50) was 3.8 µM in [3] and 33 µM in [4].

With `O=c1ccn([C@H]2C[C@H](O)[C@@H](CNC(c3ccccc3)(c3ccccc3)c3ccccc3)O2)c(=O)[nH]1` [Compound 2b], the “Selectivity index (SI) for enzyme [KiHsdUTPase/KiPfdUTPase]” value on recombinant PfdUTPase [1] was 232. Moreover, the EC50 in series [3] is 4.5 µM.

Take `O=C(NCCCO)C(c1ccccc1)(c1ccccc1)c1ccccc1` [Compound 4, N-(3-Hydroxypropyl)-2,2,2-triphenylacetamide]: the Ki at recombinant PfdUTPase [5] (setting [9]) is 1000 µM. Moreover, the EC50 in [6] was 9.8 µM; in series [7] (setting [10]), 19 µM. Also, in series [7], the “Cell selectivity index (SI) [EC50 L6/EC50 P. falciparum]” value amounted to 1.9.

Regarding `O=C(NCCCn1ccc(=O)[nH]c1=O)C(c1ccccc1)(c1ccccc1)c1ccccc1` [Compound 8, 1-(3-(Triphenylacetylamino)propyl)uracil], the melting point lay within 154 to 156 °C. Moreover, the Ki at recombinant PfdUTPase [5] (setting [9]) amounted to 6.3 µM.

As for `O=C(CCCn1ccc(=O)[nH]c1=O)NC(c1ccccc1)(c1ccccc1)c1ccccc1` [Compound 12, 1-[3-(Tritylaminocarbonyl)propyl]uracil], the Ki on recombinant PfdUTPase [5] (setting [9]) amounted to 0.2 µM.

Compound `O=C(NCCCn1ccc(=O)[nH]c1=O)C(c1ccccc1)c1ccccc1` [Compound 7, 1-(3-(Diphenylacetylamino)propyl)uracil] registered a melting point of 145 to 147 °C. For the same compound, the “Selectivity index (SI) for enzyme [KiHsdUTPase/KiPfdUTPase]” value at recombinant PfdUTPase [5] came out at 26. Also, the inhibition constant (Ki) on recombinant PfdUTPase [5] (setting [9]) turned out to be 11 µM. Besides, in series [8], the Ki stood at 286 µM. Besides, the EC50 in series [6] amounted to 14 µM. Further, the “Cell selectivity index (SI) [EC50 L6/EC50 P. falciparum]” value in series [7] is 1.3. For the same compound, in series [7] (setting [10]), the EC50 was 18 µM.

With `O=c1ccn(CCCCCCOC(c2ccccc2)(c2ccccc2)c2ccccc2)c(=O)[nH]1` [Compound 1d], the EC50 in [3] is 2.3 µM; in series [4], 44 µM.

For `O=c1ccn(CCCCOC(c2ccccc2)(c2ccccc2)c2ccccc2)c(=O)[nH]1` [Compound 1b], the Ki in series [2] is above 1000 µM. Further, the results for the EC50 in series [3] and in [4] were 4.9 µM and 42 µM, respectively.

Turning to `O=c1ccn(CCCCCNC(c2ccccc2)(c2ccccc2)c2ccccc2)c(=O)[nH]1` [Compound 1g], the Ki in [2] is above 1000 µM. The EC50 in series [3] was 2.2 µM; in [4] it was 39 µM.

As for `O=c1ccn([C@H]2C[C@H](O)[C@@H](COC(c3ccccc3)(c3ccccc3)c3ccccc3)O2)c(=O)[nH]1` [Compound 2a], the “Selectivity index (SI) for enzyme [KiHsdUTPase/KiPfdUTPase]” value at recombinant PfdUTPase [1] is given as 10. In addition, the EC50 in series [3] is 6 µM; in series [4] it was 192 µM. In addition, the “Cell selectivity index (SI) [EC50 L6/EC50 P. falciparum]” value in series [4] is reported as 32.

Consider `O=C(O)CCCn1ccc(=O)[nH]c1=O` [Compound 10, 1-(Carboxypropyl)uracil], for which the melting point fell in the range of 174 to 176 °C. At recombinant PfdUTPase [5] (setting [9]), the “Enzyme assay, Ki P.fal” value is reported as “low affinity” and the Ki was above 100 µM. Further, the EC50 in series [6] is 25 µM. In addition, the “Cell selectivity index (SI) [EC50 L6/EC50 P. falciparum]” value in series [7] was determined as 0.7. For the same compound, in series [7] (setting [10]), the concentration for a half-maximal effect (EC50) worked out at 18 µM.

On to `O=C(CCCn1ccc(=O)[nH]c1=O)NC(c1ccccc1)c1ccccc1` [Compound 11, 1-[3-(Benzhydrylaminocarbonyl)propyl]uracil], for which, at recombinant PfdUTPase [5] (setting [9]), the Ki amounted to 0.7 µM.

Consider `O=c1ccn(CCCCCOC(c2ccccc2)(c2ccccc2)c2ccccc2)c(=O)[nH]1` [Compound 1c], for which the Ki in [2] is above 1000 µM. For the same compound, the EC50 in [3] was 1.1 µM; in series [4] it was 24 µM.

As to `O=c1ccn(CCCCCCNC(c2ccccc2)(c2ccccc2)c2ccccc2)c(=O)[nH]1` [Compound 1h], the “Selectivity index (SI) for enzyme [KiHsdUTPase/KiPfdUTPase]” value at recombinant PfdUTPase [1] is above 556. For the same compound, the Ki in series [2] is above 1000 µM. For the same compound, the EC50 in series [3] is 1.1 µM; in series [4], 40 µM.

On to `O=C(c1ccccc1)n1c(=O)ccn(CCCNC(=O)C(c2ccccc2)(c2ccccc2)c2ccccc2)c1=O` [Compound 6, 3-Benzoyl-(1-(3-(triphenylacetylamino)propyl)uracil)], for which the Ki at recombinant PfdUTPase [5] (setting [9]) was above 100 µM. Further, the EC50 in series [6] turned out to be 6.7 µM; in series [7] (setting [10]), 9 µM. For the same compound, the “Cell selectivity index (SI) [EC50 L6/EC50 P. falciparum]” value in series [7] amounted to 1.4.

As for `O=C(NC(c1ccccc1)c1ccccc1)[C@H]1O[C@@H](n2ccc(=O)[nH]c2=O)C[C@@H]1O` [Compound 17, 2′,5′-Dideoxyuridine-5′-N-benzhydryl carboxamide], the “Selectivity index (SI) for enzyme [KiHsdUTPase/KiPfdUTPase]” value at recombinant PfdUTPase [5] was above 12. Besides, the values for the Ki (on recombinant PfdUTPase [5] (setting [9]); in series [8]) were 8.3 µM and above 100 µM, respectively. Also, the EC50 in series [6] is above 5 µM; in series [7] (setting [10]) it was above 90 µM.

With `O=c1ccn(CCCNC(c2ccccc2)(c2ccccc2)c2ccccc2)c(=O)[nH]1` [Compound 1e], the values for the EC50 in [3] and in series [4] were 4.4 µM and 107 µM, respectively.

`O=C(NCCCO)C(c1ccccc1)c1ccccc1` [Compound 3, N-(3-Hydroxypropyl)-2,2-diphenylacetamide]: the Ki at recombinant PfdUTPase [5] (setting [9]) was above 100 µM. The EC50 in [6] is 19 µM; in series [7] (setting [10]), 18 µM. Moreover, the “Cell selectivity index (SI) [EC50 L6/EC50 P. falciparum]” value in series [7] is on record as 1.0.

As to `O=c1ccn(CCCOC(c2ccccc2)(c2ccccc2)c2ccccc2)c(=O)[nH]1` [Compound 1a], the “Selectivity index (SI) for enzyme [KiHsdUTPase/KiPfdUTPase]” value on recombinant PfdUTPase [1] is 4. Further, the EC50 in series [3] is 7.5 µM; in series [4] it was 34 µM.

Turning to `O=c1ccn([C@H]2C[C@H](O)[C@@H](CNC(c3ccccc3)c3ccccc3)O2)c(=O)[nH]1` [Compound 2c], in series [4], the EC50 was above 229 µM.

Turning to `COc1cc([C@@H]2c3cc4c(cc3[C@H](O)[C@H]3COC(=O)[C@H]23)OCO4)cc(OC)c1OC` [podophyllotoxin, reference compound], the EC50 in [7] (Rattus norvegicus, L6, read-out: In vitro assays, EC50 L6 cells (Tox)) came out at 0.012 µM.
